Test results: patent US20250163048A1 (Tango Therapeutics, Inc., priority 2022, published 2025)
pIC50: −log10 of the molar value. Read-outs that look alike come from different tables or passages of the source.

Experiments:
[1] = tested on: HAP1 MTAP-deleted cell line; experiment: SDMA in-cell western assay, HAP1 MTAP-deleted; conditions: for pIC50 / IC90: Homo sapiens; for Hap1 MTAP intact/deleted ratio: IC50 ratio between HAP1 MTAP-intact and HAP1 MTAP-deleted cell line
[2] = tested on: HAP1 MTAP-intact cell line; experiment: SDMA in-cell western assay, HAP1 MTAP-intact; conditions: Homo sapiens
MTAP-deleted cell line = experiment: viability assay for the MTAP-deleted cell line; format: cell-based; conditions: Homo sapiens, HAP1, viability assay
[3] = HAP1, read-out: Hap1 MTAP deleted IC50, SDMA in-cell western, HAP1 MTAP-deleted cell line
[4] = HAP1, read-out: Hap1 MTAP deleted IC90, SDMA in-cell western, HAP1 MTAP-deleted cell line
[5] = HAP1, read-out: Hap1 MTAP intact IC50, SDMA in-cell western, HAP1 MTAP-intact cell line
[6] = HAP1, read-out: Hap1 MTAP deleted IC50, SDMA in-cell western assay, HAP1 MTAP-deleted cell line
[7] = HAP1, read-out: Hap1 MTAP deleted IC90, SDMA in-cell western assay, HAP1 MTAP-deleted cell line
[8] = HAP1, read-out: Hap1 MTAP intact IC50, SDMA in-cell western assay, HAP1 MTAP-intact cell line

Row | Compound | pIC50 [1, 3] | IC90 [1, 4] [µM] | Hap1 MTAP intact/deleted ratio ([1]; SDMA in-cell western) | pIC50 [2, 5] | pIC50 (MTAP-deleted cell line) | pIC50 [1, 6] | IC90 [1, 7] [µM] | Hap1 MTAP intact/deleted ratio ([1]; SDMA in-cell western assay) | pIC50 [2, 8]
1 | C[C@H]1CC[C@H](c2cccc(OC[C@@H](C)N(C)C)c2)N(C(=O)C(=O)Nc2cnc(N)c3cn[nH]c23)C1 [Compound 149, N-(4-amino-1H-pyrazolo[4,3-c]pyridin-7-yl)-2-((2R,5S)-2-(3-((R)-2-(dimethylamino)propoxy)phenyl)-5-methylpiperidin-1-yl)-2-oxoacetamide] | > 8.30 | < 0.075 | C (“C” indicates an IC50 ratio of less than 15 fold) | 7.30 to 8.30 | > 7.00 | – | – | – | –
2 | CC(C)n1cc2cc([C@H]3CC[C@H](C)CN3C(=O)C(=O)Nc3cnc(N)c4cn[nH]c34)ccc2n1 (racemic) [Compound 231, N-(4-Amino-1H-pyrazolo[4,3-c]pyridin-7-yl)-2-oxo-2-[rac-(2R,5S)-2-(2-isopropylindazol-5-yl)-5-methyl-1-piperidyl]acetamide] | – | – | – | – | > 7.00 | > 8.30 | < 0.075 | A (“A” indicates an IC50 ratio greater than or equal to 30 fold) | 7.30 to 8.30
3 | C[C@H]1CC[C@H](c2ccc3sc(C4=CCN(C)CC4)nc3c2)N(C(=O)C(=O)Nc2ccn3ccnc3c2)C1 [Compound 157, N-(imidazo[1,2-a]pyridin-7-yl)-2-((2R,5S)-5-methyl-2-(2-(1-methyl-1,2,3,6-tetrahydropyridin-4-yl)benzo[d]thiazol-5-yl)piperidin-1-yl)-2-oxoacetamide] | > 8.30 | < 0.075 | A (“A” indicates an IC50 ratio greater than or equal to 30 fold) | < 7.30 | > 7.00 | – | – | – | –
4 | CNc1ncc(NC(=O)C(=O)N2C[C@@H](C)CC[C@@H]2c2ccc3scnc3c2)c2[nH]ncc12 [Compound 146, 2-((2R,5S)-2-(benzo[d]thiazol-5-yl)-5-methylpiperidin-1-yl)-N-(4-(methylamino)-1H-pyrazolo[4,3-c]pyridin-7-yl)-2-oxoacetamide] | 7.30 to 8.30 | 0.075 to 0.125 | A (“A” indicates an IC50 ratio greater than or equal to 30 fold) | < 7.30 | 6.00 to 7.00 | – | – | – | –
5 | C[C@H]1CC[C@H](c2ccc3sc([C@H]4CCCN(C)C4)nc3c2)N(C(=O)C(=O)Nc2cncc3c(N)nccc23)C1 (relative stereo) [Compound 10, N-(8-amino-2,7-naphthyridin-4-yl)-2-oxo-2-[(2R,5S)-5-methyl-2-[2-[rel-(3S)-1-methyl-3-piperidyl]-1,3-benzothiazol-5-yl]-1-piperidyl]acetamide] | > 8.30 | < 0.075 | A (“A” indicates an IC50 ratio greater than or equal to 30 fold) | < 7.30 | > 7.00 | – | – | – | –
6 | C[C@H]1CC[C@H](c2ccc3ccc(C4CCN(C)CC4)nc3c2)N(C(=O)C(=O)Nc2ccn3ccnc3c2)C1 [Compound 170, N-(imidazo[1,2-a]pyridin-7-yl)-2-((2R,5S)-5-methyl-2-(2-(1-methylpiperidin-4-yl)quinolin-7-yl)piperidin-1-yl)-2-oxoacetamide] | 7.30 to 8.30 | > 0.125 | A (“A” indicates an IC50 ratio greater than or equal to 30 fold) | < 7.30 | > 7.00 | – | – | – | –
7 | C[C@H]1CC[C@H](c2ccc3ccccc3c2)N(C(=O)C(=O)Nc2cnc(N)c3cn[nH]c23)C1 [Compound 79, N-(4-amino-1H-pyrazolo[4,3-c]pyridin-7-yl)-2-((2R,5S)-5-methyl-2-(naphthalen-2-yl)piperidin-1-yl)-2-oxoacetamide] | > 8.30 | < 0.075 | A (“A” indicates an IC50 ratio greater than or equal to 30 fold) | 7.30 to 8.30 | > 7.00 | – | – | – | –
8 | COc1cncc([C@H]2CC[C@H](C)CN2C(=O)C(=O)Nc2cnc(N)c3cn[nH]c23)c1 (racemic) [Compound 261, N-(4-Amino-1H-pyrazolo[4,3-c]pyridin-7-yl)-2-oxo-2-[rac-(2R,5S)-2-(5-methoxy-3-pyridyl)-5-methyl-1-piperidyl]acetamide] | – | – | – | – | > 7.00 | > 8.30 | < 0.075 | A (“A” indicates an IC50 ratio greater than or equal to 30 fold) | < 7.30
9 | C[C@H]1CC[C@H](c2ccc3nn(C4CC(C)(C)N(C)C(C)(C)C4)cc3c2)N(C(=O)C(=O)Nc2cncc3cn[nH]c23)C1 [Compound 47, 2-oxo-N-(1H-pyrazolo[4,3-c]pyridin-7-yl)-2-[(2R,5S)-5-methyl-2-[2-(1,2,2,6,6-pentamethyl-4-piperidyl)indazol-5-yl]-1-piperidyl]acetamide] | > 8.30 | < 0.075 | B (“B” indicates an IC50 ratio greater than or equal to 15 fold but lower than 30 fold) | 7.30 to 8.30 | > 7.00 | – | – | – | –
